What all share (assay type): physicochemical
Data set [1] in a line: Static stability / storage of solid forms, checked by XRPD. The procedure: The samples were analysed by XRPD and, where appropriate, by DSC, TGA, VT-XRPD and ^1H NMR. Static stability at 25° C./96% RH and 40° C./75% RH was also investigated.
This material was analysed by XRPD TGA, GVS, and mDSC. Static stability experiments were carried out under ambient conditions and also at 25° C./96% RH and 40° C./75% RH. Finally this material was used as input material for the polymorphism screen (see Table 6).

A short description of data set [2]: Gravimetric Vapour Sorption (GVS). The procedure:
Sorption isotherms were obtained using a SMS DVS Intrinsic moisture sorption analyser, controlled by DVS Intrinsic Control software v1.0.1.2 (or v 1.0.1.3). The sample temperature was maintained at 25° C. by the instrument controls. The humidity was controlled by mixing streams of dry and wet nitrogen, with a total flow rate of 200 ml/min The relative humidity was measured by a calibrated Rotronic probe (dynamic range of 1.0-100% RH), located near the sample. The weight change, (mass relaxation) of the sample as a function of % RH was constantly monitored by the microbalance (accuracy±0.005 mg). Typically 5-20 mg of sample was placed in a tared mesh stainless steel basket under ambient conditions. The sample was loaded and unloaded at 40% RH and 25° C. (typical room conditions). A moisture sorption isotherm was performed as outlined below (2 scans giving 1 complete cycle or 4 scans giving 2 complete cycles). The standard isotherm was performed at 25° C. at 10% RH intervals over a 0-90% RH range. Data analysis was undertaken in Microsoft Excel using DVS Analysis Suite v6.2 (or 6.1 or 6.0). Table 2 details the method parameters for SMS DVS intrinsic experiments.
The sample was recovered after completion of the isotherm and re-analysed by XRPD.

Data set [3] in a line: Static stability / storage of solid forms, checked by XRPD. The source holds these as a separate data set.
Another data set in a line: Aqueous solubility.
The nature of the next data set: XRPD after ball milling.
Data set [4] can be described thus: Drying of solid forms, form checked by XRPD. To be noted: for Filtration and air drying for 30 min: air drying 30 min.

Results on five compounds are retold here after US20150111864A1, “CRYSTALLINE FORM OF A BETA-LACTAMASE INHIBITOR” (Cubist Pharmaceuticals, Inc., priority 2013, published 2015).

“Also recorded” adds a separate entry of the source. Counter-ions that a name gives are not always drawn.

On to `NCCCc1nnc([C@@H]2CC[C@@H]3CN2C(=O)N3OS(=O)(=O)O)o1` [Amorphous Solid, (2S,5R)-2-(5-(3-aminopropyl)-1,3,4-oxadiazol-2-yl)-7-oxo-1,6-diazabicyclo[3.2.1]octan-6-yl hydrogen sulfate], for which, in data set [1] (25° C./96% RH), the “Static Stability - 25° C./96% RH: time to conversion to Form 5” value is reported as “Conversion to Form 5 within 15 minutes”. Moreover, the “Static Stability - 40° C./75% RH: time to conversion to Form 5” value in data set [1] (40° C./75% RH) was “Conversion to Form 5 within 15 minutes”. For the same compound, the “Static Stability - ambient” value in data set [1] (ambient conditions, XRPD) is given as “Form 5 peaks observed after 36 days (although”. The “GVS (water uptake, in words)” value in data set [2] (25° C., resulting solid was Form 5 by XRPD) is reported as “Rapid uptake of water from 40-60%”.

In the case of `NCCCc1nnc([C@@H]2CC[C@@H]3CN2C(=O)N3OS(=O)(=O)O)o1` [Form 5, (2S,5R)-2-(5-(3-aminopropyl)-1,3,4-oxadiazol-2-yl)-7-oxo-1,6-diazabicyclo[3.2.1]octan-6-yl hydrogen sulfate], the “Storage in vacuum oven at 25° C.” value in data set [3] (25° C., after 5 days) was “No change in form or crystallinity”. In addition, the “Storage in vacuum oven at 50° C.” value in data set [3] (50° C., after 24 h) is reported as “Sample almost completely amorphous”. Moreover, the “Aqueous solubility (24 hrs at 25°): solid form of residue” value in “Aqueous solubility” is given as “Residue was Form 5”. The “Aqueous solubility (24 hrs at 25°)” value in “Aqueous solubility” (pH 4.85) is 13.1 mg/ml (pH 4.85). The “Stability relative to the amorphous solid form and other crystalline forms” value in data set [1] is reported as “more stable than other crystalline forms; also recorded: improved stability”. Besides, the “Change of XRPD pattern over time (FIG. 2)” value in data set [1] (25° C. and 40% relative humidity, t=0 and t=2 days) is “little to no change”. In addition, the “Storage at 25° C./96% RH for 1 week” value in data set [1] (25° C./96% RH, 1 week) was “No change in form or crystallinity”. Moreover, the “Storage at 40° C./75% RH for 1 week” value in data set [1] (40° C./75% RH, 1 week) is “No change in form or crystallinity”. For the same compound, the “Relative stability of crystalline forms at ambient conditions” value in data set [1] (ambient conditions (25° C. and 40% RH)) was “most stable crystalline form”. The “XRPD after ball milling (20 min)” value in the data set “XRPD after ball milling” is “No change in form but loss”. The “XRPD post GVS” value in data set [2] (after GVS isotherm) is “Form 5. No change in crystallinity”. In addition, the “GVS Mass change” value in data set [2] (from 0-90% RH, 25° C.) is “Mass change of 9.73% from 0-90% RH”.

For `NCCCc1nnc([C@@H]2CC[C@@H]3CN2C(=O)N3OS(=O)(=O)O)o1` [Form 6, (2S,5R)-2-(5-(3-aminopropyl)-1,3,4-oxadiazol-2-yl)-7-oxo-1,6-diazabicyclo[3.2.1]octan-6-yl hydrogen sulfate], the “Filtration and air drying for 30 min” value in data set [4] is listed as “No change in form”. The “Storage at 25° C./96% RH for 24 h” value in data set [1] (25° C./96% RH) is recorded as “Conversion to Form 5”. Besides, the “Storage at 40° C./75% RH for 24 h” value in data set [1] (40° C./75% RH) is listed as “Conversion to Form 5”.

`NCCCc1nnc([C@@H]2CC[C@@H]3CN2C(=O)N3OS(=O)(=O)O)o1` [Form 7, (2S,5R)-2-(5-(3-aminopropyl)-1,3,4-oxadiazol-2-yl)-7-oxo-1,6-diazabicyclo[3.2.1]octan-6-yl hydrogen sulfate]: the “Filtration and air drying for 30 min” value in data set [4] is “No change in form”. Also, the “Storage at 25° C./96% RH for 24 h” value in data set [1] (25° C./96% RH) was “Conversion to Form 5”. Moreover, the “Storage at 40° C./75% RH for 24 h” value in data set [1] (40° C./75% RH) is “Conversion to Form 5”. In data set [1], the “Storage at ambient conditions for 24 h” value is recorded as “No change in form”.

With `NCCCc1nnc([C@@H]2CC[C@@H]3CN2C(=O)N3OS(=O)(=O)O)o1` [Form 9, (2S,5R)-2-(5-(3-aminopropyl)-1,3,4-oxadiazol-2-yl)-7-oxo-1,6-diazabicyclo[3.2.1]octan-6-yl hydrogen sulfate], in data set [4] (5 mmHg, 25° C., overnight), the “Drying in at 5 mmHg/25° C. overnight” value is “No change in form”. Also, the “Storage at 25° C./96% RH for 24 h” value in data set [1] (25° C./96% RH) was “Conversion to Form 5”. Besides, the “Storage at 40° C./75% RH for 24 h” value in data set [1] (40° C./75% RH) is reported as “Conversion to Form 5”. Besides, the “Storage at ambient conditions for 24 h” value in data set [1] is on record as “No change in form”.
